# Results published in paper PMC2229628 (The Journal of Endocrinology, 2008).
# Target: T1, human GnRH receptor (hGnRHR) (Homo sapiens, UniProt P30968)
# T1 sequence (P30968 1-328): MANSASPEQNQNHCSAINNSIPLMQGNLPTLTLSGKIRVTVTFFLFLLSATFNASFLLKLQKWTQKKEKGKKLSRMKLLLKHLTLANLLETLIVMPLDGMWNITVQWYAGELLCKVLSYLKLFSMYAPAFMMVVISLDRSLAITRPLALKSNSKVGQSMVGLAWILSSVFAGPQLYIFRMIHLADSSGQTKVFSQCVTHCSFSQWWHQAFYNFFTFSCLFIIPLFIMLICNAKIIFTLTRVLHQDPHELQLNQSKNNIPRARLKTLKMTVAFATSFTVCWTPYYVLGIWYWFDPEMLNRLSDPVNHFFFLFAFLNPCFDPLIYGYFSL
# Type: cell-based
compound,measurement,value
"Cc1cc(C)cc(-c2[nH]c3ccc(C(C)(C)C(=O)N4CC5CCC4CC5)cc3c2[C@H](C)CNCCc2ccncc2)c1 [IN3, (2S)-2-[5-[2-(2-axabicyclo[2.2.2]oct-2-yl)-1,1-dimethy-2-oxoethyl]-2-(3,5-dimethylphenyl)-1H-indol-3-yl]-N-(2-pyridin-4-ylethyl)propan-1-amine]",EC50,3–5×10^−8 M
